The results in this text go back to ChEMBL document CHEMBL1201862, “PubChem BioAssay data set” (2004).

A word on the AC50: it is the concentration giving half of the maximal activity seen. Usually IC50 stands for the concentration at which inhibition is half-maximal.

The nature of experiment [1]: Luminescence Cell-Based Dose Confirmation HTS to Identify Activators of 5'UTR Stem-Loop Driven Alpha-Synuclein mRNA Translation in H4 Neuroglioblastoma Cells. [Related pubchem assays: 1829 (Project Summary), 1814 (Primary HTS)]. The class given is functional.
The subject of the next experiment is H4. In words: Luminescence Cell-Based Dose Response HTS to Identify Activators of 5'UTR Stem-Loop Driven Prion Protein mRNA Translation in H4 Neuroglioblastoma Cells. [Related pubchem assays: 1829 (Project Summary), 1814 (Primary HTS)]. Format: functional. Particulars: Homo sapiens.
Experiment [2] in a line: Luminescence Cell-Based Dose Response HTS to Identify Activators of Luciferase Translation or Activity in H4 […] Cells. [Related pubchem assays: 1829 (Project Summary), 1814 (Primary HTS)]. Format: functional.
Experiment [3] addresses T1, Short transient receptor potential channel 4 (Mus musculus, UniProt Q9QUQ5).
T1 sequence (Q9QUQ5 whole entry): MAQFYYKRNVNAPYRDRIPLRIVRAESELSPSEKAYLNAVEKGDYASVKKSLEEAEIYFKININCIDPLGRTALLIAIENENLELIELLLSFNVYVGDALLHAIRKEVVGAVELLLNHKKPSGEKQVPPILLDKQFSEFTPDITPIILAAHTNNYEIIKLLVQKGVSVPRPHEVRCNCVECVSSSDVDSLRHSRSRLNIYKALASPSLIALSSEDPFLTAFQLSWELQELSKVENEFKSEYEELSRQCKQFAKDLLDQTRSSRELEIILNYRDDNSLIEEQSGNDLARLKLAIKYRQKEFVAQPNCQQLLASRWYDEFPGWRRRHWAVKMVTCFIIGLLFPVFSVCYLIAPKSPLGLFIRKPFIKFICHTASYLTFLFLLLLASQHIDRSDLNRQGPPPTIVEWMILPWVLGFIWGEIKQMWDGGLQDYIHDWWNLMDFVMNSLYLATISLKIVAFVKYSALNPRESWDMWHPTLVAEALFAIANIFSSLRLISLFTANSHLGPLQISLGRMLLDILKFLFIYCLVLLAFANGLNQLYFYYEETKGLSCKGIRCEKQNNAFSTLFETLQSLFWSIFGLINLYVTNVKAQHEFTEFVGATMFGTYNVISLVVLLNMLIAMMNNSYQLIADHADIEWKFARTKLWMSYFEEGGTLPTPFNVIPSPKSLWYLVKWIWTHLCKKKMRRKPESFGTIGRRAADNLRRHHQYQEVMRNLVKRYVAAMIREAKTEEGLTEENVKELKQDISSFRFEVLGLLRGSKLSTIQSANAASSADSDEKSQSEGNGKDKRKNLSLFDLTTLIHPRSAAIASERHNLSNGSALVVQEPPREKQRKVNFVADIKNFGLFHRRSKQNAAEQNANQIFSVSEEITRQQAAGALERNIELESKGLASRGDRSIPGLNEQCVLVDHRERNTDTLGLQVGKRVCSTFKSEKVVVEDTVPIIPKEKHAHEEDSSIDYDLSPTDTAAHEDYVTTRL
In words: block of DAMGO-driven TRPC4 calcium entry – cell-based, HEK293 TRPC4/mu-opioid, Fluo-4 calcium, dose response (AID 434942).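 Note: potency of inhibitors blocking the TRPC4 calcium response.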 Format: functional.

Experiment [4] has as its target T1, Short transient receptor potential channel 4. In words: calcium entry via TRPC4 opening agents – cell-based, HEK293 TRPC4/mu-opioid, Fluo-4 calcium, dose response (AID 434937). Format: functional.
Another experiment concerns HeLa. In words: ATP-based viability loss in HeLa cells – cell-based, CellTiter-Glo luminescence, cherry-pick samples, cytotoxicity control for MITF activator project, dose response (AID 540259). The class given is functional. Particulars: Homo sapiens.
A further experiment deals with Cytochrome P450 2C19 (Homo sapiens, UniProt P33261). In words: Cytochrome panel assay with activity outcomes. Panel member name: p450-cyp2c19 Compounds with AC50 equal or less than 10 uM are considered active. Format: functional. Particulars: read-out: AC50.
For experiment [5], the target named is T2, Rac GTPase-activating protein 1 (Homo sapiens, UniProt Q9H0H5).
T2 sequence (Q9H0H5 whole entry): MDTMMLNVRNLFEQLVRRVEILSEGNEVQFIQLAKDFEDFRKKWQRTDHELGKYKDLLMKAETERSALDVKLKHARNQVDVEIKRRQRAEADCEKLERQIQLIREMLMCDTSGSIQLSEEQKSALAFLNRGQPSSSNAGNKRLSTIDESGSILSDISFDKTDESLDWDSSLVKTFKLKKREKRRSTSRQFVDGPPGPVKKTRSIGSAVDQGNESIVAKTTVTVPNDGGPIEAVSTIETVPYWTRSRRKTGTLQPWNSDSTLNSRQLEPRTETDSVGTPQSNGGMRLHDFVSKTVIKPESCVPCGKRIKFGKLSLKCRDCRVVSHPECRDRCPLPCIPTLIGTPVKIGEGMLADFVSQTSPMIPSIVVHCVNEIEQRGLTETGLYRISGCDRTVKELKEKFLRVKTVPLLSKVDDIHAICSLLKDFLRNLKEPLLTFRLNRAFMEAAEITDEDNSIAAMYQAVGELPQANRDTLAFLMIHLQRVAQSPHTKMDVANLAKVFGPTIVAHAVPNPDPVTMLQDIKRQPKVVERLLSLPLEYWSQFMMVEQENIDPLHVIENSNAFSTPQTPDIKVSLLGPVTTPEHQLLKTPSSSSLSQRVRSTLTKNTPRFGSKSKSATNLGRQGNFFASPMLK
In words: blockers of MgcRacGAP-driven Rac1 GTP hydrolysis – biochemical, ADP Hunter fluorescence, primary and confirmatory, confirmation (AID 624330). Format: functional.

A further experiment concerns the target Cytochrome P450 2C9 (Homo sapiens, UniProt P11712).
Experiment [6] has as its target T3, Corticotropin-releasing factor receptor 2/Corticotropin-releasing factor-binding protein (Homo sapiens, UniProt P24387+Q13324).
T3 sequence (Q13324 whole entry): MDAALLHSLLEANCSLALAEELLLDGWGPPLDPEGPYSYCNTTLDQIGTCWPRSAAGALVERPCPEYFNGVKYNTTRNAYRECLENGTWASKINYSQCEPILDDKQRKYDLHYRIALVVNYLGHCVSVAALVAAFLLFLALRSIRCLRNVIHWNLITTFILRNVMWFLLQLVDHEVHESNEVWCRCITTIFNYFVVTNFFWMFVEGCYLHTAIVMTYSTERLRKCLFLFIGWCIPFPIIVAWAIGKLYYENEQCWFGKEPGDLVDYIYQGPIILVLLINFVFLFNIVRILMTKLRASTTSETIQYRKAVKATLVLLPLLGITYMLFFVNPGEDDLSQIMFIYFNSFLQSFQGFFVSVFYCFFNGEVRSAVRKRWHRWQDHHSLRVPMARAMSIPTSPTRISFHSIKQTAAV
T3 sequence (P24387 whole entry): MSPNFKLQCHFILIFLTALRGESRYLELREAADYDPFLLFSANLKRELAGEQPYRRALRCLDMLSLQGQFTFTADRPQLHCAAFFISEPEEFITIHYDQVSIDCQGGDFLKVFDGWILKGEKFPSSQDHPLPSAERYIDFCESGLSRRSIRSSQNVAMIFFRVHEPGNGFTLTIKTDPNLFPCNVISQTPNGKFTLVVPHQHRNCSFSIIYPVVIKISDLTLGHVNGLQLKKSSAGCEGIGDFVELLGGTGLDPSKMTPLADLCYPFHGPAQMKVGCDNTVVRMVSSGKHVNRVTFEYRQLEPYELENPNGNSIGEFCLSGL
Put plainly: activators of CRF receptor 2 with binding protein – uHTS hits, confirmation (AID 602473). Format: functional. The note with it: read-out: EC50_Mean.

Experiment [7] in a line: NIH3T3 cell viability loss – ATP luminescence, mouse fibroblasts, counter-screen, dose response (AID 2010).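 Note: cells exposed to compound for about 90 hours before reading.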 Format: functional, cell-based. (In general: A counterscreen serves to expose hits that act by an unwanted route or on another target.)
The nature of experiment [8]: Trypanosoma cruzi growth suppression in host cells – NIH3T3 host cells, beta-gal luminescence, confirmation (AID 2044).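 Note: intracellular parasites grown in NIH/3T3 mouse fibroblasts as host cells; luminescent beta-galactosidase reporter signal from transgenic T. cruzi replicating inside host cells; inhibitors lower the luminescence signal.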 The class given is functional, cell-based.

Calls of active or inactive are those of the source. Some results are limits rather than exact numbers.

Sequence of Cytochrome P450 2C9 (P11712 whole entry): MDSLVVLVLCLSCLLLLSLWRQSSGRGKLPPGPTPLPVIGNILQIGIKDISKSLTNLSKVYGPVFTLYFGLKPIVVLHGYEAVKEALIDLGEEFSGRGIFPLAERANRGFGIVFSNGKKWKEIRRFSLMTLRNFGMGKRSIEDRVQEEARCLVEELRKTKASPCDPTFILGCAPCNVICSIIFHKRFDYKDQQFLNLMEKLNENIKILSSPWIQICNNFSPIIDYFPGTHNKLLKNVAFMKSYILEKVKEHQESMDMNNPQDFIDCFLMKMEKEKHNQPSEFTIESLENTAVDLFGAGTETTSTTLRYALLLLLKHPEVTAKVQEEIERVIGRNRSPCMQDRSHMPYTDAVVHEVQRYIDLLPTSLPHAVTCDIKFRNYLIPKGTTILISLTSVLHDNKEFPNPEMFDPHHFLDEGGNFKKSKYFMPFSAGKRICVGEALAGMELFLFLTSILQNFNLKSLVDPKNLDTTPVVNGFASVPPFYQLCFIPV
Sequence of Cytochrome P450 2C19 (P33261 whole entry): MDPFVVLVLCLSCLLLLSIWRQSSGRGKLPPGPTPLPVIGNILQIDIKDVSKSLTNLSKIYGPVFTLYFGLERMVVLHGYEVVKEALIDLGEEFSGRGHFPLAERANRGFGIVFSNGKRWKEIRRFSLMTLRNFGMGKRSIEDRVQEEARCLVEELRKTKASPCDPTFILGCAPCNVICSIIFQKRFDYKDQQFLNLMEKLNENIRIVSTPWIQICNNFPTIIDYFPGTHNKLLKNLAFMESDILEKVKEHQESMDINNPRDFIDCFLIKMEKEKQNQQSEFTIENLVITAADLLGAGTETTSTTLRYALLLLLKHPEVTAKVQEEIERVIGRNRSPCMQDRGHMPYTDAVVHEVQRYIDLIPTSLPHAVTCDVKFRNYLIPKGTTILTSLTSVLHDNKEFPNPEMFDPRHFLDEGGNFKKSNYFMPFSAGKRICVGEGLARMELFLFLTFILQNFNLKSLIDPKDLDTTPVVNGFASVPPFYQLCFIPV

As to `O=C(NC(=S)NCc1nc2ccccc2[nH]1)c1ccccc1F`, the values for the EC50 (in experiment [1]; in the experiment on H4; in experiment [2]) were 70.7 µM (active), 9.16 µM (active) and 25.6 µM (active), respectively.

`NC(=O)c1nsc(C(=O)N(Cc2ccc(F)cc2)C(C(=O)NCC2CCCO2)c2ccc(O)cc2)c1N` (centres undefined): in experiment [3], the EC50 was 2.37 µM (active). Turning to `CCCCN(CCCC)C(=N)Nc1nc(C)cc(C)n1`, in experiment [3], the EC50 is 3.76 µM (active). As for `CNCCOc1ccc(Cl)c(Cl)c1`, in experiment [4], the EC50 is 0.944 µM (active). In the case of `Nc1c(-c2ccc(Cl)cc2)cnn1-c1ccccc1`, the AC50 in the experiment on HeLa is 64.2 µM (active). Turning to `OCCNc1nc(NCc2ccccc2)c2ccccc2n1`, the EC50 in experiment [3] was 3.35 µM (active). As for `COCCN(C(=O)COC(=O)/C=C/c1ccccc1Cl)c1c(N)n(Cc2ccccc2)c(=O)[nH]c1=O`, the values for the EC50 (in experiment [1]; in the experiment with H4; in experiment [2]) were 26.2 µM (active), > 120 µM (not active) and 9.52 µM (active), respectively. For `Cc1ccc(-n2[nH]c(=O)c3cccnc32)cc1`, the AC50 at Cytochrome P450 2C19 is 25.1 µM (inconclusive); on Cytochrome P450 2C9, 28.2 µM (inconclusive). In [5], the IC50 is 95.2 µM (active). For `COc1cccc(/C=C/C(=O)OC(C)C(=O)Nc2c(C)n(C)n(-c3ccccc3)c2=O)c1` (centres undefined), the EC50 in [1] is 10.5 µM (active); with H4, > 120 µM (not active); in experiment [2], 49.1 µM (active). Take `CCCCNCc1cc(Cl)c(OCCC)c(OCC)c1`: in [3], the EC50 was 2.37 µM (active). With `CCn1c(COc2ccccc2C)nc2ccccc21`, in experiment [6], the EC50 is 4.28 µM (active). Further, the AC50 in the experiment with HeLa is 81 µM (active). For the compound `COc1cccc2cc(CC(=O)c3ccc(C)cc3C)c(=O)oc12`, the values for the EC50 (in experiment [1]; in the experiment with H4; in experiment [2]) were 43.3 µM (active), 11 µM (active) and 43.4 µM (active), respectively. In addition, in the experiment on HeLa, the AC50 is 83.9 µM (active). Take `COc1ccc(C(CNC(=O)c2cccc(NS(=O)(=O)c3ccc(Br)cc3)c2)N(C)C)cc1` (centres undefined): in [4], the EC50 was 5.31 µM (active). In the case of `COc1cccc(CNC(=O)CN2C(=O)CSc3ccc(S(=O)(=O)N4CCCCC4)cc32)c1`, the EC50 (in experiment [1]; in the experiment on H4; in experiment [2]) was > 120 µM (not active) each time.

On to `CC(NCc1cc(Br)ccc1OCC(=O)NCc1ccccc1)c1ccccc1` (centres undefined), for which the EC50 in experiment [7] is > 60 µM (not active); in [8] it was 2.53 µM (active); in [4] it was 7.5 µM (active); in experiment [3], 1.06 µM (active).

On to `O=C(c1ccc(F)cc1)c1ccc(N2CCCCC2)cc1`, for which the AC50 in the experiment with HeLa is 57.7 µM (active). On to `Fc1ccc(-n2cc(CNCCc3ccncc3)c(-c3ccccc3Cl)n2)cc1`, for which the EC50 in experiment [3] is 3.35 µM (active). `Oc1c(Br)cc(Br)cc1/C=N/c1ccc2[nH]ncc2c1`: in experiment [3], the EC50 is 4.22 µM (active). For `Cc1cccc(-n2ncc3c(N4CC(C)CC(C)C4)ncnc32)c1` (centres undefined), in the experiment on HeLa, the AC50 was 163 µM (active).

For the compound `O=C(NC1=NCCS1)C12CC3CC(C1)CC(C(=O)NC1=NCCS1)(C3)C2`, the EC50 in experiment [1] is > 120 µM (not active); in the experiment on H4, 9.63 µM (active); in [2], 13.6 µM (inconclusive). As for `CCCc1ccc(-c2cc(C(=O)NCCc3ccc(S(N)(=O)=O)cc3)c3ccccc3n2)cc1`, in the experiment on HeLa, the concentration at half-maximal activity (AC50) is 37.5 µM (active). In the case of `Oc1nc2cc3c(cc2cc1CN(Cc1nnnn1C1CCCC1)C1CCCC1)OCCO3`, the EC50 in experiment [1] is > 120 µM (not active); with H4, 59.4 µM (active); in experiment [2], > 120 µM (not active).

For `Cc1cc2cc(C#N)c(NCCN=C(S)NCCCN3CCOCC3)nc2cc1C`, the EC50 in [3] is 5.31 µM (active). For `CC(C)=CCCC(C)CN1CCC(n2nccc2NC(=O)C2CCCC2)CC1` (centres undefined), the EC50 in [3] is 5.31 µM (active). `CC(Oc1ccc(Cl)cc1Cl)c1nc(-c2ccccn2)no1` (centres undefined): the EC50 in experiment [3] was 1.88 µM (active).

For the compound `CSCCC(NS(=O)(=O)c1ccc2c(c1)c(=O)n(C)c(=O)n2C)C(=O)NC1CCN(Cc2ccccc2)CC1` (centres undefined), the EC50 in [4] is 3.76 µM (active). As for `Cc1ccc(NC(=O)CN2CCCC2c2cccn2C)c(Br)c1` (centres undefined), the AC50 in the experiment on HeLa was 52.2 µM (active). For `CCOc1ccc2ncc(C(=O)c3ccc(OC)cc3)c(N3CCN(CC)CC3)c2c1`, the EC50 in experiment [4] is 5.96 µM (active).
